Measurements taken from patent US20180021450A1, “ANTI-STAPHYLOCOCCUS AUREUS ANTIBODY RIFAMYCIN CONJUGATES AND USES THEREOF” (Genentech, Inc., priority 2014, published 2018).
In brackets after ≈: the same amount, converted by molar mass. Like-named read-outs stand apart in the source and are kept apart here.

Assays:
[1] = test system: MRSA (NRS384 strain of USA300); assay: MIC determination for extracellular bacteria in liquid culture; type: cell-based; settings: Staphylococcus aureus, read-out: Extracellular MRSA MIC
Experimental: The MIC for extracellular bacteria was determined by preparing serial 2-fold dilutions of the antibiotic in Tryptic Soy Broth. Dilutions of the antibiotic were made in quadruplicate in 96 well culture dishes. MRSA (NRS384 strain of USA300) was taken from an exponentially growing culture and diluted to 1×10^4 CFU/mL. The bacteria was cultured in the presence of antibiotic for 18-24 hours with shaking at 37° C. and bacterial growth was determined by reading the Optical Density (OD) at […]. The MIC was determined to be the dose of antibiotic that inhibited bacterial growth by >90%.
(§1) For extracellular bacteria, MRSA was cultured overnight in Tryptic Soy Broth, and the MIC was determined to be the minimum antibiotic dose that prevented growth. For intracellular bacteria, murine peritoneal macrophages were infected with MRSA and cultured in the presence of gentamycin to kill extracellular bacteria. Test antibiotics were added to the culture medium one day post infection, and the total number of surviving intracellular bacteria was determined 24 hours later. The expected serum concentrations for clinically relevant antibiotics was reported in Antimicrobial Agents, Andre Bryskier. ASM Press, Washington D.C. (2005).

[2] = test system: intracellular MRSA sequestered inside murine macrophages; assay: MIC determination for intracellular bacteria inside murine peritoneal macrophages; type: cell-based, Staphylococcus aureus; settings: for MIC: Staphylococcus aureus, MRSA, read-out: Intracellular MRSA MIC; for killing of MRSA sequestered inside macrophages: macrophages exposed to clinically achievable concentrations
Experimental: Intracellular MIC was determined on bacteria that were sequestered inside mouse peritoneal macrophages (see below for generation of murine peritoneal macrophages). Macrophages were plated in 24 well culture dishes at a density of 4×10^5 cells/mL and infected with MRSA at a ratio of 10-20 bacteria per macrophage. Macrophage cultures were maintained in growth media supplemented with 50 ug/mL of gentamycin (an antibiotic that is active only on extracellular bacteria) to inhibit the growth of extracellular bacteria and test antibiotics were added to the growth media 1 day after infection. The survival of intracellular bacteria was assessed 24 hours after addition of the antibiotics. Macrophages were lysed with Hanks Buffered Saline Solution supplemented with 0.1% Bovine Serum Albumin and 0.1% Triton-X, and serial dilutions of the lysate were made in Phosphate Buffered Saline solution containing 0.05% Tween-20. The number of surviving intracellular bacteria was determined by plating on Tryptic Soy Agar plates with 5% defibrinated sheep blood.
Peritoneal macrophages were isolated from the peritoneum of 6-8 week old Balb/c mice (Charles River Laboratories, Hollister, Calif.). To increase the yield of macrophages, mice were pre-treated by intraperitoneal injection with 1 mL of thioglycolate media (Becton Dickinson). The thioglycolate media was prepared at a concentration of 4% in water, sterilized by autoclaving, and aged for 20 days to 6 months prior to use. Peritoneal macrophages were harvested 4 days post treatment with thioglycolate by washing the peritoneal cavity with cold phosphate buffered saline. Macrophages were plated in Dulbecco's Modified Eagle Medium (DMEM) supplemented with 10% Fetal Calf Serum, and 10 mM HEPES, without antibiotics, at a density of 4×10^5 cells/well in 24 well culture dishes. Macrophages were cultured over night to permit adherence to the plate. This assay was also utilized to test intracellular killing in non-phagocytic cell types. MG63 (CRL-1427) and A549 (CCL185) cell lines were obtained from ATCC and maintained in RPMI 1640 tissue culture media supplemented with 10 mM Hepes and 10% Fetal Calf Serum (RPMI-10). HUVEC cells were obtained from Lonza and maintained in EGM Endothelial Cell Complete Media (Lonza, Walkersville, Md.).
as §1

[3] = expected serum concentration, from Antimicrobial Agents, Bryskier (2005); cited from earlier work
[4] = test system: S. aureus (USA300) persister cells; assay: Killing of persister cells by free antibiotics; type: cell-based, Staphylococcus aureus; settings: ciprofloxacin-treated cultures, second antibiotic 1 ug/ml
Experimental: Killing of persisters cells by free antibiotics: S. aureus (USA300) was taken from an overnight stationary phase culture, washed once in Tryptic Soy Broth (TSB) and then adjusted to a final concentration of 1×10^7 CFU/ml in a total volume of 10 mL of either TSB or TSB with ciprofloxicin (0.05 mM). Cultures were incubated with shaking at 37° C. for 6 hours and then the second antibiotic, either rifampicin (1 ug/ml) or another rifamycin-type antibiotic (1 ug/ml) was added. At the indicated times, samples were removed from each culture, washed once with PBS to remove the antibiotic and re-suspended in PBS. The total number of surviving bacteria was determined by plating serial dilutions of the bacteria on agar plates. At the final time point the remainder of each culture was collected and plated.

MRSA = assay: In vitro transfer of infection to MG63 osteoblasts / HBMEC in the presence of vancomycin; type: cell-based, Staphylococcus aureus
Experimental: 6-8 week old female A/J mice (Jackson Lab) were infected with 1×10^8 CFU of the NRS384 strain of USA300 by peritoneal injection. The peritoneal wash was harvested 1 day post infection, and the infected peritoneal cells were treated with 50 ug/mL of lysostaphin diluted in Hepes Buffer supplemented with 0.1% BSA (HB buffer) for 30 minutes at 37° C. Peritoneal cells were then washed 2x in ice cold HB buffer. The peritoneal cells were diluted to 1×10^6 cells/mL in RPMI 1640 tissue culture media supplemented with 10 mM Hepes and 10% Fetal Calf Serum, and 5 ug/mL vancomycin. Free MRSA from the primary infection was stored overnight at 4° C. in Phosphate Buffered Saline Solution as a control for extracellular bacteria that were not subject to neutrophil killing.
MG63 cell line was obtained from ATCC (CRL-1427) and maintained in RPMI 1640 tissue culture media supplemented with 10 mM Hepes and 10% Fetal Calf Serum (RPMI-10). HBMEC cells (Catalog #1000) and ECM media (catalog#1001) were obtained from SciencCell Research Labs (Carlsbad, Calif.). Cells were plated in 24 well tissue culture plates and cultured to obtain a confluent layer. On the day of the experiment, the cells were washed once in RPMI (without supplements). MRSA or infected peritoneal cells were diluted in complete RPMI-10 and vancomycin was added at 5 ug/mL immediately prior to infection. Peritoneal cells were added to the osteoblasts at 1×10^6 peritoneal cells/mL. A sample of the cells was lysed with 0.1% triton-x to determine the actual concentration of live intracellular bacteria at the time of infection. The actual titer for all infections was determined by plating serial dilutions of the bacteria on Tryptic Soy Agar with 5% defibrinated sheep blood.
MRSA (free bacteria) was seeded in media, media+vancomycin, or media+vancomycin and plated on a monolayer of MG63 osteoblasts (FIG. 1E) or Human Brain Microvascular Endothelial Cells (HBMEC, FIG. 1F). Plates were centrifuged to promote contact of the bacteria with the monolayer. At each time point, the culture supernatant was collected to recover extracellular bacteria or adherent cells were lysed to release intracellular bacteria.

USA300 = assay: In vivo transfer of infection model in A/J mice (free vs intracellular bacteria); design: species or system Staphylococcus aureus; settings: mice infected i.v. with free or intracellular bacteria, examined 4 days after infection
Experimental: USA300 stocks were prepared for infection from actively growing cultures in tryptic soy broth. Bacteria were washed 3× in phosphate buffered saline (PBS) and aliquots were frozen at −80° C. in PBS 25% glycerol. Intracellular Bacteria Infections: A/J mice were chosen for these experiments because they are easily infected with relatively low doses of MRSA (2×10^6 CFU/mouse). 7 week old female A/J mice were obtained from Jackson Lab and infected by peritoneal injection with 5×10^7 CFU of USA300. Mice were sacrificed 1 day post infection and the peritoneum was flushed with 5 mL of cold PBS. Peritoneal washes were centrifuged for 5 minutes at 1,000 rpm at 4° C. in a table top centrifuge. The cell pellet containing peritoneal cells was collected and cells were treated with 50 ug/mL of lysostaphin (Cell Sciences Inc. Canton Mass., CRL 309C) for 20 minutes at 37° C. to kill contaminating extracellular bacteria. Peritoneal cells were washed 3x in ice cold PBS to remove the lysostaphin. […]
These experiments compared the virulence of intracellular bacteria versus an equivalent dose of free-living planktonic bacteria, and determined whether the intracellular bacteria are able to establish infection in the presence of vancomycin in vivo. […]

[5] = extracellular bacteria grown in liquid culture (Tryptic Soy Broth)
[6] = bacteria sequestered inside murine macrophages, antibiotics added one day post infection, survivors counted 24 hours later

| SMILES | MIC [1] [µg/mL] | MIC ([2]; 24 h) [µg/mL] | killing of MRSA sequestered inside macrophages [2] | Serum Cmax [3] [µg/mL] | MIC [1, 5] [µg/mL] | MIC [2, 6] [µg/mL] | higher dose to eliminate intracellular MRSA compared to the dose required to inhibit growth (MIC) of planktonic bacteria ([2]; intracellular vs planktonic MRSA USA300) | effect on viability of persister cells [4] | increase of intracellular S. aureus over a 24 hour period (MRSA; MG63 cells, primary human brain endothelial cells, A549 cells, constant exposure to vancomycin) [fold] | survival of intracellular MRSA in the leukocytes (MRSA; MRSA sequestered inside peritoneal cells, vancomycin 5 ug/mL) | surviving bacteria associated with the MG63 cells one day after infection (MRSA; planktonic bacteria plated on MG63 osteoblasts, vancomycin 5 ug/mL) | killing of planktonic bacteria exposed to vancomycin alone (MRSA; vancomycin 5 ug/mL, one day in culture) | establishment of infection (kidney, brain) under vancomycin therapy (USA300) |
| --- | --- | --- | --- | --- | --- | --- | --- | --- | --- | --- | --- | --- | --- |
| CCCCCCCCCC(=O)N[C@@H](Cc1c[nH]c2ccccc12)C(=O)N[C@H](CC(N)=O)C(=O)N[C@@H](CC(=O)O)C(=O)N[C@@H]1C(=O)NCC(=O)N[C@@H](CCCN)C(=O)N[C@@H](CC(=O)O)C(=O)N[C@H](C)C(=O)N[C@@H](CC(=O)O)C(=O)NCC(=O)N[C@H](CO)C(=O)N[C@@H]([C@H](C)CC(=O)O)C(=O)N[C@@H](CC(=O)c2ccccc2N)C(=O)O[C@@H]1C [Daptomycin] | 4 (≈ 2.47 µM) | > 100 | failed to kill | 60 | – | – | – | – | – | – | – | – | – |
| CC(=O)NC[C@H]1CN(c2ccc(N3CCOCC3)c(F)c2)C(=O)O1 [Linezolid] | – | – | failed to kill | 20 | 0.3 (≈ 0.889 µM) | > 20 | – | – | – | – | – | – | – |
| CO[C@H]1/C=C/O[C@@]2(C)Oc3c(C)c(O)c4c(O)c(c(/C=N/N5CCN(C)CC5)c(O)c4c3C2=O)NC(=O)/C(C)=C\C=C\[C@H](C)[C@H](O)[C@@H](C)[C@@H](O)[C@@H](C)[C@H](OC(C)=O)[C@@H]1C [Rifampicin] | – | – | – | – | 0.004 (≈ 0.00486 µM) | 50 (≈ 60.8 µM) | 6,000 fold | no effect | – | – | – | – | – |
| CN[C@H](CC(C)C)C(=O)N[C@H]1C(=O)N[C@@H](CC(N)=O)C(=O)N[C@H]2C(=O)N[C@H]3C(=O)N[C@H](C(=O)N[C@H](C(=O)O)c4cc(O)cc(O)c4-c4cc3ccc4O)[C@H](O)c3ccc(c(Cl)c3)Oc3cc2cc(c3O[C@@H]2O[C@H](CO)[C@@H](O)[C@H](O)[C@H]2O[C@H]2C[C@](C)(N)[C@H](O)[C@H](C)O2)Oc2ccc(cc2Cl)[C@H]1O [Vancomycin] | 1 (≈ 0.69 µM) | > 100 | failed to kill | 50 | – | – | – | – | ~10 | About 15% | approximately 0.06 % of input | efficiently killed | intracellular bacteria, but not planktonic bacteria, were able to establish infection |
